Reference: US20170333421A1, “Population Pharmacokinetics of Liposomal Irinotecan” (IPSEN BIOPHARM LTD., priority 2016, published 2017)
Where a name gives a salt, the structure may show the parent alone. Read-outs that look alike come from different tables or passages of the source. Values belong to the molecule of their own block, whether it stands above or below them.

Assays:
[1] = NAPOLI-1 observed 5-FU concentration; settings: human, in vivo, intravenous; read-out: 5-FU estimated half-life after the end of infusion
[2] = test system: Colorectal Cancer; settings: cited from earlier work
[3] = clinical; settings: human, in vivo, 300 mg/m2
[4] = test system: pancreatic cell lines; assay: CellTiter-Glo cell viability, pancreatic cell panel; type: cell-based
Protocol: (§1) In vitro efficacy study was done using CellTiter-Glo® Luminescent Cell Viability Assay (Promega) with Corning Cat #3707 384well White Clear bottom plates. Cells were plated (1000 cells/well) in 384 well format and allowed to incubate @ 37 C for 24 hours. Monotherapy drugs were added at the 24 hr time point and then allowed to incubate @ 37 C for 24 hours. At the 48 hr time point the drugs in media were removed, washed with PBS, and fresh media was added. Cells were then allowed to incubate @ 37 C for 72 hours. At the 120 hr time point media was removed and CellTiter-Glo (CTG) reagent was added (1:1 ratio with PBS). Plate was read by luminometer (Envision Multilabel reader). More details of this assay can be found in Accelrys Notebook ELN as EXP-15-AC2111.
(§2) All cell lines had been adapted to and were maintained in RPMI with 10% fetal bovine serum and supplemented with penicillin/streptomycin (Invitrogen).
(§3) Data was analyzed using an in-house algorithm developed using Matlab (Mathworks, Natick MA). In summary, average CTG mean luminescent values were computed for 4 replicate wells. Outlier detection was performed by computing the coefficient of variation (CV>20%) and outliers were removed from the average. CTG values were normalized based on a control non-treated well. Drug concentration in microMolar (uM) was log transformed prior to fitting to a 4 parameter logistic curve.
(§4) Data quality control was performed to ensure that the concentration range is optimal according to these rules: (1) if the lowest concentration kills more than 70% of the cells the concentration range is deemed too potent (2) if the highest concentration kills less than 30% of the cells, the concentration range is deemed low or the cell line is too resistant. Additionally, goodness of the fit was evaluated using R^2 and R^2<0.9 is flagged as a bad fit. Statistical analysis was performed using JMP (SAS Institute Inc., NC).
(§5) Pancreatic cell lines were cultured to sub confluent state in 384 well plates prior to incubation with varying doses of SN-38 for 24 hours. Additions 72 hours of culture were performed prior to CTG assessment. Every well was run in 4 replicates, and the entire experiment was run in four different plates. The compared results from the four separate experiments show the reproducibility of the cytotoxic effects of SN-38.

[5] = test system: Aspc1; assay: CellTiter-Glo cell viability; type: cell-based; settings: for IC50: Homo sapiens, Aspc1, 24 h exposure + 72 h recovery
Protocol: as §1, §2, §3, §4, §5

[6] = test system: BxPC3; assay: CellTiter-Glo cell viability; type: cell-based; settings: for IC50: Homo sapiens, BXPC-3, BxPC3, 24 h exposure + 72 h recovery
Protocol: as §1, §2, §3, §4, §5

[7] = test system: CFPAC1; assay: CellTiter-Glo cell viability; type: cell-based; settings: for IC50: Homo sapiens, CFPAC-1
Protocol: as §1, §2, §3, §4, §5

[8] = test system: Capan-2; assay: CellTiter-Glo cell viability; type: cell-based
Protocol: as §1, §2, §3, §4, §5

[9] = test system: Colo357; assay: CellTiter-Glo cell viability; type: cell-based; settings: for IC50: Homo sapiens, Colo357, 24 h exposure + 72 h recovery
Protocol: as §1, §2, §3, §4, §5

[10] = test system: HPAFII; assay: CellTiter-Glo cell viability; type: cell-based; settings: for IC50: Homo sapiens, HPAF-II, 24 h exposure + 72 h recovery
Protocol: as §1, §2, §3, §4, §5

[11] = test system: Hs766t; assay: CellTiter-Glo cell viability; type: cell-based; settings: for IC50: 24 h exposure + 72 h recovery
Protocol: as §1, §2, §3, §4, §5

[12] = test system: KP4; assay: CellTiter-Glo cell viability; type: cell-based; settings: for IC50: Homo sapiens, KP-4, KP4, 24 h exposure + 72 h recovery
Protocol: as §1, §2, §3, §4, §5

[13] = test system: L3.3; assay: CellTiter-Glo cell viability; type: cell-based; settings: for IC50: L3.3, 24 h exposure + 72 h recovery
Protocol: as §1, §2, §3, §4, §5

[14] = test system: L3.6pL; assay: CellTiter-Glo cell viability; type: cell-based; settings: for IC50: Homo sapiens, 24 h exposure + 72 h recovery
Protocol: as §1, §2, §3, §4, §5

[15] = test system: Miapaca2; assay: CellTiter-Glo cell viability; type: cell-based; settings: for IC50: Homo sapiens, MIA PaCa-2
Protocol: as §1, §2, §3, §4, §5

[16] = test system: PL45; assay: CellTiter-Glo cell viability; type: cell-based; settings: for IC50: PL45, 24 h exposure + 72 h recovery
Protocol: as §1, §2, §3, §4, §5

[17] = test system: Panc1; assay: CellTiter-Glo cell viability; type: cell-based
Protocol: as §1, §2, §3, §4, §5

[18] = test system: Panc6.03; assay: CellTiter-Glo cell viability; type: cell-based; settings: for IC50: Panc6.03, 24 h exposure + 72 h recovery
Protocol: as §1, §2, §3, §4, §5

[19] = test system: SU8686; assay: CellTiter-Glo cell viability; type: cell-based; settings: for IC50: Homo sapiens, SU.86.86, SU8686, 24 h exposure + 72 h recovery
Protocol: as §1, §2, §3, §4, §5

[20] = test system: SW1990; assay: CellTiter-Glo cell viability; type: cell-based; settings: for IC50: Homo sapiens, SW1990, 24 h exposure + 72 h recovery
Protocol: as §1, §2, §3, §4, §5

[21] = Kohne 2013, continuous infusion
[22] = n 3, read-out: IC50 Log(μM) mean (converted)
[23] = n 2, read-out: IC50 Log(μM) mean (converted)
[24] = n 4, read-out: IC50 Log(μM) mean (converted)

half-life [1]: 8 to 14 min
Structure (SMILES): O=c1[nH]cc(F)c(=O)[nH]1 [5-FU, 5-fluorouracil]
Median OS (m) ([2]; Kohne 2013, bolus 463-531 mg/m^2/week): nrd | OS 3 y ([2]; Kohne 2013, bolus): 85% | OS 5 y ([2]; Kohne 2013, bolus): 79% | Median OS (m) ([2]; Kohne 2013, continuous infusion 800-3500 mg/m^2/week, N 797): nrd | OS 3 y [2, 21]: 85% | OS 5 y [2, 21]: 79% | Overall Survival HR, bolus vs continuous infusion (ref) ([2]; Kohne 2013 PETACC-2, BL 370-425 mg/m^2/d for 5 d q4w, N 804): 0.96 | OS HR across different 5-FU dose intensities and dose administrations ([2]; meta-analysis, did not affect OS): 0.96-1.11

AUC(0-inf) [3]: 24700 ng·h/mL | Cmax [3]: 4100 ng/mL
Structure (SMILES): CCc1c2c(nc3ccc(OC(=O)N4CCC(N5CCCCC5)CC4)cc13)-c1cc3c(c(=O)n1C2)COC(=O)[C@]3(O)CC [irinotecan HCl, (S)-4,11-diethyl-3,4,12,14-tetrahydro-4-hydroxy-3,14-dioxo1H-pyrano[3′,4′:6,7] indolizino[1,2-b]quinolin-9-yl-[1,4′bipiperidine]-1′-carboxylate]

IC50 [5, 22]: 0.00398 µM | IC50 ([5]; read-out: IC50(nM) mean): 0.00398 µM | IC50 [6, 23]: 0.017 nM | IC50 ([6]; read-out: IC50(nM) mean): 0.017 nM | IC50 [9, 23]: 0.0617 nM | IC50 ([9]; read-out: IC50(nM) mean): 0.0617 nM | IC50 ([15]; MiaPaCa2, read-out: IC50 concentration): 0.0042 nM | IC50 ([15]; Miapaca2, 24 h exposure + 72 h recovery, n 3, read-out: IC50 Log(μM) mean (converted)): 0.00417 nM | IC50 ([15]; Miapaca2, 24 h exposure + 72 h recovery, read-out: IC50(nM) mean): 0.0042 nM | IC50 ([17]; Homo sapiens, PANC-1, Panc1, 24 h exposure + 72 h recovery, n 4, read-out: IC50 Log(μM) mean (converted)): 0.0138 µM | IC50 ([17]; Homo sapiens, PANC-1, Panc1, 24 h exposure + 72 h recovery, read-out: IC50(nM) mean): 0.0138 µM | IC50 ([17]; Panc1, 24 h exposure + 72 h recovery, read-out: IC50(nM) mean): 0.0138 µM | IC50 [18, 24]: 0.00115 µM | IC50 ([18]; read-out: IC50(nM) mean): 0.00115 µM | IC50 [20, 24]: 0.0871 nM | IC50 ([20]; read-out: IC50(nM) mean): 0.0871 nM
Structure (SMILES): CCc1c2c(nc3ccc(O)cc13)-c1cc3c(c(=O)n1C2)COC(=O)[C@]3(O)CC [SN-38]
Tumor cell kill rates averaged across all cell lines [4]: 90% | decrease in cell viability for most cell lines ([4]; 24 h SN-38, additional 72 h culture): around 90% | IC50 ([4]; 24 hours exposure, recovery period of 72 h, read-out: IC50 range across all pancreatic cell lines): 0.001 to 100 nM | IC50 ([4]; basis of the uSN38 threshold, read-out: median IC50 in in-vitro pancreatic cell lines): 0.03 ng/mL | Tumor Cell Kill (%) mean ([5]; Aspc1): 91.61% | Tumor Cell Kill (%) mean ([6]; BxPC3): 77.37% | Tumor Cell Kill (%) mean ([7]; CFPAC1): 84.74% | IC50 ([7]; CFPAC1, 24 h exposure + 72 h recovery, n 2, read-out: IC50 Log(μM) mean (converted)): 0.00316 nM | IC50 ([7]; CFPAC1, 24 h exposure + 72 h recovery, read-out: IC50(nM) mean): 0.0032 nM | IC50 ([7]; CFPAC1, read-out: IC50 concentration): 0.0032 nM | Tumor Cell Kill (%) mean ([8]; Capan-2): 94.61% | IC50 ([8]; Capan-2, 24 h exposure + 72 h recovery, read-out: IC50(nM) mean): 20.4 nM | IC50 ([8]; Homo sapiens, Capan-2, Capan-2, 24 h exposure + 72 h recovery, n 3, read-out: IC50 Log(μM) mean (converted)): 20.4 nM | IC50 ([8]; Homo sapiens, Capan-2, Capan-2, 24 h exposure + 72 h recovery, read-out: IC50(nM) mean): 20.4 nM | Tumor Cell Kill (%) mean ([9]; Colo357): 94.47% | Tumor Cell Kill (%) mean [10]: 93.24% | IC50 [10, 22]: 0.00204 µM | IC50 ([10]; read-out: IC50(nM) mean): 0.00204 µM | Tumor Cell Kill (%) mean [11]: 86.41% | IC50 ([11]; read-out: IC50(nM) mean): 63.1 nM | IC50 ([11]; Hs766T, n 2, read-out: IC50 Log(μM) mean (converted)): 63.1 nM | IC50 ([11]; Hs766T, read-out: IC50(nM) mean): 63.1 nM | IC50 [12, 23]: 0.00794 nM | IC50 ([12]; read-out: IC50(nM) mean): 0.0079 nM | Tumor Cell Kill (%) mean ([12]; KP4): 86.62% | Tumor Cell Kill (%) mean ([13]; L3.3): 93.01% | IC50 [13, 23]: 0.00204 nM | IC50 ([13]; read-out: IC50(nM) mean): 0.002 nM | Tumor Cell Kill (%) mean [14]: 95.18% | IC50 [14, 23]: 0.00282 nM | IC50 ([14]; read-out: IC50(nM) mean): 0.0028 nM | Tumor Cell Kill (%) mean ([15]; Miapaca2): 91.23% | Tumor Cell Kill (%) mean ([16]; PL45): 92.16% | IC50 [16, 23]: 0.00355 nM | IC50 ([16]; read-out: IC50(nM) mean): 0.0035 nM | Tumor Cell Kill (%) mean ([17]; Panc1): 89.54% | Tumor Cell Kill (%) mean ([18]; Panc6.03): 87.68% | IC50 [19, 23]: 0.000692 µM | IC50 ([19]; read-out: IC50(nM) mean): 0.000692 µM | Tumor Cell Kill (%) mean ([19]; SU8686): 95.82% | Tumor Cell Kill (%) mean ([20]; SW1990): 91.92%
